ChEMBL document CHEMBL5113409, “Design and synthesis of proteolysis targeting chimeras (PROTACs) as an EGFR degrader based on CO-1686” (Eur J Med Chem, 2022)
Active and inactive are the calls of the source. The calls are words filed in the database; no cut-off is given here.

Assays:
NCI-H1975 [1] = assay: Induction of apoptosis in human NCI-H1975 cells assessed as viable cells level at 1 uM incubated for 48 hrs by Annexin-V/propidium iodide staining based biparametric cytofluorometric assay (reference value: 93.9%); format: functional
NCI-H1975 [2] = assay: Induction of cell cycle arrest in human NCI-H1975 cells assessed as accumulation at S phase at 1 uM incubated for 48 hrs by propidium iodide staining based flow cytometry (reference value: 37.13%); format: functional
NCI-H1975 [3] = assay: Induction of apoptosis in human NCI-H1975 cells assessed as early apoptosis cells level at 1 uM incubated for 48 hrs by Annexin-V/propidium iodide staining based biparametric cytofluorometric assay (reference value: 2.26%); format: functional
NCI-H1975 [4] = assay: Induction of apoptosis in human NCI-H1975 cells assessed as late apoptosis cells level at 0.25 uM incubated for 48 hrs by Annexin-V/propidium iodide staining based biparametric cytofluorometric assay (reference value: 2.46%); format: functional
[5] = target: Epidermal growth factor receptor (Homo sapiens, UniProt P00533, L858R/T790M); assay: Inhibition of EGFR L858R/T790M mutant (unknown origin) incubated for 35 mins by HTRF KinEASE-TK assay
NCI-H1975 [6] = assay: Induction of cell cycle arrest in human NCI-H1975 cells assessed as accumulation at G0/G1 phase at 0.25 uM incubated for 48 hrs by propidium iodide staining based flow cytometry (reference value: 59.18%); format: functional
NCI-H1975 [7] = assay: Induction of apoptosis in human NCI-H1975 cells incubated for 48 hrs by Annexin-V/propidium iodide staining based biparametric cytofluorometric assay; format: functional, cell-based; conditions: DDE = dose-dependent effect
[8] = test system: Protein cereblon/Epidermal growth factor receptor (Homo sapiens), P00533+Q96SW2 [L858R,T790M]; assay: Protac activity at CRBN/EGFR L858R/T790M mutant in human NCI-H1975 cells assessed as L858R/T790M mutant degradation at 0.3 uM incubated up to 36 hrs by Western blot analysis; format: cell-based; conditions: TDE = time-dependent effect
PC-9 = assay: Anti-proliferative activity against human PC-9 cells assessed as reduction in cell proliferation incubated for 72 hrs by MTT assay; format: functional, cell-based; conditions: PC-9, 72 h
NCI-H1975 [9] = assay: Anti-proliferative activity against human NCI-H1975 cells assessed as reduction in cell proliferation incubated for 72 hrs by MTT assay; format: functional, cell-based; conditions: NCI-H1975, 72 h
NCI-H1975 [10] = assay: Induction of apoptosis in human NCI-H1975 cells assessed as late apoptosis cells level at 1 uM incubated for 48 hrs by Annexin-V/propidium iodide staining based biparametric cytofluorometric assay (reference value: 2.46%); format: functional
[11] = target: Epidermal growth factor receptor (Homo sapiens, UniProt P00533); assay: Inhibition of wild type EGFR (unknown origin) incubated for 10 mins by HTRF KinEASE-TK assay
NCI-H1975 [12] = assay: Induction of apoptosis in human NCI-H1975 cells assessed as necrosis cells level at 1 uM incubated for 48 hrs by Annexin-V/propidium iodide staining based biparametric cytofluorometric assay (reference value: 2.46%); format: functional
NCI-H1975 [13] = assay: Induction of apoptosis in human NCI-H1975 cells assessed as necrosis cells level at 0.5 uM incubated for 48 hrs by Annexin-V/propidium iodide staining based biparametric cytofluorometric assay (reference value: 2.46%); format: functional
NCI-H1975 [14] = assay: Induction of cell cycle arrest in human NCI-H1975 cells assessed as accumulation at S phase at 0.5 uM incubated for 48 hrs by propidium iodide staining based flow cytometry (reference value: 37.13%); format: functional
Homo sapiens = species: Homo sapiens; assay: Selectivity index, ratio of IC50 for wild type EGFR (unknown origin) to IC50 for Protein cereblon/Epidermal growth factor receptor L858R/T790M mutant
[15] = test system: Protein cereblon/Epidermal growth factor receptor (Homo sapiens), P00533+Q96SW2 [L858R,T790M]; assay: Protac activity at CRBN/EGFR L858R/T790M mutant in human NCI-H1975 cells assessed as L858R/T790M mutant degradation at 3 uM incubated for 48 hrs by Western blot analysis; format: cell-based
NCI-H1975 [16] = assay: Induction of apoptosis in human NCI-H1975 cells assessed as viable cells level at 0.25 uM incubated for 48 hrs by Annexin-V/propidium iodide staining based biparametric cytofluorometric assay (reference value: 93.9%); format: functional
NCI-H1975 [17] = assay: Induction of cell cycle arrest in human NCI-H1975 cells assessed as accumulation at G2/M phase at 1 uM incubated for 48 hrs by propidium iodide staining based flow cytometry (reference value: 3.68%); format: functional
NCI-H1975 [18] = assay: Induction of cell cycle arrest in human NCI-H1975 cells assessed as accumulation at G0/G1 phase at 0.5 uM incubated for 48 hrs by propidium iodide staining based flow cytometry (reference value: 59.18%); format: functional
NCI-H1975 [19] = assay: Induction of apoptosis in human NCI-H1975 cells assessed as late apoptosis cells level at 0.5 uM incubated for 48 hrs by Annexin-V/propidium iodide staining based biparametric cytofluorometric assay (reference value: 2.46%); format: functional
NCI-H1975 [20] = assay: Induction of apoptosis in human NCI-H1975 cells assessed as early apoptosis cells level at 0.5 uM incubated for 48 hrs by Annexin-V/propidium iodide staining based biparametric cytofluorometric assay (reference value: 2.26%); format: functional
A549 = assay: Anti-proliferative activity against human A549 cells assessed as reduction in cell proliferation incubated for 72 hrs by MTT assay; format: functional, cell-based; conditions: A549, 72 h
NCI-H1975 [21] = assay: Induction of cell cycle arrest in human NCI-H1975 cells assessed as accumulation at G2/M phase at 0.5 uM incubated for 48 hrs by propidium iodide staining based flow cytometry (reference value: 3.68%); format: functional
NCI-H1975 [22] = assay: Induction of cell cycle arrest in human NCI-H1975 cells assessed as accumulation at S phase at 0.25 uM incubated for 48 hrs by propidium iodide staining based flow cytometry (reference value: 37.13%); format: functional
NCI-H1975 [23] = assay: Induction of cell cycle arrest in human NCI-H1975 cells assessed as accumulation at G0/G1 phase at 1 uM incubated for 48 hrs by propidium iodide staining based flow cytometry (reference value: 59.18%); format: functional
[24] = test system: Protein cereblon/Epidermal growth factor receptor (Homo sapiens), P00533+Q96SW2 [L858R,T790M]; assay: Protac activity at CRBN/EGFR L858R/T790M mutant in human NCI-H1975 cells assessed as L858R/T790M mutant degradation incubated for 48 hrs by Western blot analysis relative to untreated control; format: cell-based
NCI-H1975 [25] = assay: Induction of cell cycle arrest in human NCI-H1975 cells assessed as accumulation at G2/M phase at 0.25 uM incubated for 48 hrs by propidium iodide staining based flow cytometry (reference value: 3.68%); format: functional
NCI-H1975 [26] = assay: Induction of apoptosis in human NCI-H1975 cells assessed as early apoptosis cells level at 0.25 uM incubated for 48 hrs by Annexin-V/propidium iodide staining based biparametric cytofluorometric assay (reference value: 2.26%); format: functional
[27] = target: Protein cereblon/Epidermal growth factor receptor (Homo sapiens, UniProt P00533+Q96SW2, T790M/L858R); assay: (§1) Protac activity at CRBN/EGFR L858R/T790M mutant in human NCI-H1975 cells assessed as L858R/T790M mutant degradation incubated for 48 hrs by Western blot analysis; format: cell-based
[28] = test system: Protein cereblon/Epidermal growth factor receptor (Homo sapiens), P00533+Q96SW2 [L858R,T790M]; assay: as §1; format: cell-based; conditions: DDE = dose-dependent effect
NCI-H1975 [29] = assay: Induction of apoptosis in human NCI-H1975 cells assessed as viable cells level at 0.5 uM incubated for 48 hrs by Annexin-V/propidium iodide staining based biparametric cytofluorometric assay (reference value: 93.9%); format: functional

C=CC(=O)Nc1cccc(Nc2nc(Nc3ccc(N4CCN(CC(=O)NCCNc5cccc6c5C(=O)N(C5CCC(=O)NC5=O)C6=O)CC4)cc3OC)ncc2C(F)(F)F)c1 (configuration not stated)
Activity (NCI-H1975 [1]): 58% | Activity (NCI-H1975 [2]): 17.39% | Activity (NCI-H1975 [3]): 6.63% | Activity (NCI-H1975 [4]): 6.07% | IC50 [5]: 43.1 nM | Activity (NCI-H1975 [6]): 72.1% | Activity (NCI-H1975 [7]): Dde | Activity [8]: Tde | IC50 (PC-9): 750 nM | IC50 (NCI-H1975 [9]): 240 nM | Activity (NCI-H1975 [10]): 39.9% | IC50 [11]: 839 nM | Activity (NCI-H1975 [12]): 4.71% | Activity (NCI-H1975 [13]): 2.22% | Activity (NCI-H1975 [14]): 22.57% | Ratio IC50 (Homo sapiens): 19 | Activity [15]: Active | Activity (NCI-H1975 [16]): 89.7% | Activity (NCI-H1975 [17]): 4.8% | Activity (NCI-H1975 [18]): 73.71% | Activity (NCI-H1975 [19]): 18.3% | Activity (NCI-H1975 [20]): 6.16% | IC50 (A549): > 100000 nM | Activity (NCI-H1975 [21]): 3.72% | Activity (NCI-H1975 [22]): 23.89% | Activity (NCI-H1975 [23]): 77.8% | Emax [24]: 83% | Activity (NCI-H1975 [25]): 4.01% | Activity (NCI-H1975 [26]): 2.78% | DC50 [27]: 356 nM | Activity [28]: Dde | Activity (NCI-H1975 [29]): 73.3%
